Measurements taken from patent publication US7371766B2, “Curcumin analogs with anti-tumor and anti-angiogenic properties” (Emory University, priority 1999, dated 2008).
Where two headings read alike, the source gives them in different places.

How the values were obtained:
NCI-H522 = details: read-out: Median Growth Inhibitory Concentration (GI50); NCI-H522, Non-Small Cell Lung Cancer; 48 hours
SNB-75 = details: read-out: Median Growth Inhibitory Concentration (GI50); SNB-75, CNS Cancer; 48 hours
MCF-7 = details: read-out: Median Growth Inhibitory Concentration (GI50); MCF-7, Breast Cancer; 48 hours
MDA-MB-231 = details: read-out: Median Growth Inhibitory Concentration (GI50); MDA-MB-231, Breast Cancer; 48 hours
ACHN = details: read-out: Median Growth Inhibitory Concentration (GI50), Renal Cancer, 48 hours
OVCAR-3 = details: read-out: Median Growth Inhibitory Concentration (GI50); OVCAR-3, Ovarian Cancer; 48 hours
SN12C = details: read-out: Median Growth Inhibitory Concentration (GI50), Renal Cancer, 48 hours
A498 = details: read-out: Median Growth Inhibitory Concentration (GI50); A498, Renal Cancer; 48 hours
HT29 = details: read-out: Median Growth Inhibitory Concentration (GI50); HT29, Colon Cancer; 48 hours
A549 = details: read-out: Median Growth Inhibitory Concentration (GI50); A549, Non-Small Cell Lung Cancer; 48 hours
T-47D [1] = details: read-out: Median Growth Inhibitory Concentration (GI50), Breast Cancer, 48 hours
M14 = details: read-out: Median Growth Inhibitory Concentration (GI50); M14, Melanoma; 48 hours
HCT-116 = details: read-out: Median Growth Inhibitory Concentration (GI50); HCT-116, Colon Cancer; 48 hours
MALME-3M = details: read-out: Median Growth Inhibitory Concentration (GI50), Melanoma, 48 hours
NCI-H460 = details: read-out: Median Growth Inhibitory Concentration (GI50); NCI-H460, Non-Small Cell Lung Cancer; 48 hours
DU-145 = details: read-out: Median Growth Inhibitory Concentration (GI50); DU-145, Prostate Cancer; 48 hours
HCT-15 = details: read-out: Median Growth Inhibitory Concentration (GI50); HCT-15, Colon Cancer; 48 hours
CAKI-1 = details: read-out: Median Growth Inhibitory Concentration (GI50); CAKI-1, Renal Cancer; 48 hours
UO-31 = details: read-out: Median Growth Inhibitory Concentration (GI50); UO-31, Renal Cancer; 48 hours
U251 = details: read-out: Median Growth Inhibitory Concentration (GI50); U251, CNS Cancer; 48 hours
MOLT-4 = details: read-out: Median Growth Inhibitory Concentration (GI50); MOLT-4, Leukemia; 48 hours
SR = details: read-out: Median Growth Inhibitory Concentration (GI50), Leukemia, 48 hours
BT-549 = details: read-out: Median Growth Inhibitory Concentration (GI50); BT-549, Breast Cancer; 48 hours
HS 578T = details: read-out: Median Growth Inhibitory Concentration (GI50), Breast Cancer, 48 hours
IGROV1 = details: read-out: Median Growth Inhibitory Concentration (GI50); IGROV1, Ovarian Cancer; 48 hours
SW-620 = details: read-out: Median Growth Inhibitory Concentration (GI50); SW-620, Colon Cancer; 48 hours
OVCAR-5 = details: read-out: Median Growth Inhibitory Concentration (GI50); OVCAR-5, Ovarian Cancer; 48 hours
PC-3 = assay: cells; details: Homo sapiens, PC-3, 48 h; for GI50: read-out: Median Growth Inhibitory Concentration (GI50); for CC50: read-out: Median Lethal Concentration (LC50)
T-47D [2] = assay: cells; details: Homo sapiens, T47D, 48 h; for GI50: read-out: Median Growth Inhibitory Concentration (GI50); for CC50: read-out: Median Lethal Concentration (LC50)
OVCAR-8 = assay: cells; details: Homo sapiens, OVCAR-8, 48 h; for GI50: read-out: Median Growth Inhibitory Concentration (GI50); for CC50: read-out: Median Lethal Concentration (LC50)
SF-295 = assay: cells; details: Homo sapiens, SF-295, 48 h; for GI50: read-out: Median Growth Inhibitory Concentration (GI50); for CC50: read-out: Median Lethal Concentration (LC50)
HOP-92 = assay: cells; details: Homo sapiens, HOP-92, 48 h; for GI50: read-out: Median Growth Inhibitory Concentration (GI50); for CC50: read-out: Median Lethal Concentration (LC50)

| Molecule | GI50 (NCI-H522) | GI50 (SNB-75) | GI50 (MCF-7) | GI50 (MDA-MB-231) | GI50 (ACHN) | GI50 (OVCAR-3) | GI50 (SN12C) | GI50 (A498) | GI50 (HT29) | GI50 (A549) | GI50 (PC-3) | CC50 (PC-3) | GI50 (T-47D [2]) | CC50 (T-47D [2]) | GI50 (OVCAR-8) | CC50 (OVCAR-8) | GI50 (SF-295) | CC50 (SF-295) | GI50 (HOP-92) | CC50 (HOP-92) | other results |
| --- | --- | --- | --- | --- | --- | --- | --- | --- | --- | --- | --- | --- | --- | --- | --- | --- | --- | --- | --- | --- | --- |
| 3,5-Bis(2-hydroxybenzylidene)-sulfone [EF11] | 33.3 µM | 20.3 µM | 28.7 µM | 25.6 µM | 41 µM | 41.8 µM | 34.2 µM | 34.2 µM | 45.9 µM | 38.7 µM | – | – | – | – | – | – | – | – | – | – | GI50 (T-47D [1]): 24.7 µM; GI50 (M14): 33.9 µM; GI50 (HCT-116): 36.8 µM; GI50 (MALME-3M): 40.7 µM; GI50 (NCI-H460): 30.7 µM; GI50 (DU-145): 29.9 µM; GI50 (HCT-15): 42.6 µM; GI50 (CAKI-1): 29.2 µM; GI50 (UO-31): 28.4 µM; GI50 (U251): 35.7 µM; GI50 (MOLT-4): 19.7 µM; GI50 (SR): 21.5 µM; GI50 (BT-549): 32.9 µM; GI50 (HS 578T): 52.1 µM; GI50 (IGROV1): 35.9 µM; GI50 (SW-620): 32.5 µM; GI50 (OVCAR-5): 89.2 µM |
| N.N.[Cl][Pt][Cl] [Cisplatin, reference compound] | 0.8 µM | 0.6 µM | 0.4 µM | 3.2 µM | 0.5 µM | 1 µM | 1 µM | 2 µM | 1.3 µM | 0.8 µM | – | – | – | – | – | – | – | – | – | – | GI50 (T-47D [1]): 2 µM; GI50 (M14): 0.3 µM; GI50 (HCT-116): 1.3 µM; GI50 (MALME-3M): 0.2 µM; GI50 (NCI-H460): 0.1 µM; GI50 (DU-145): 0.4 µM; GI50 (HCT-15): 1.6 µM; GI50 (CAKI-1): 0.3 µM; GI50 (UO-31): 0.8 µM; GI50 (U251): 0.4 µM; GI50 (MOLT-4): 0.3 µM; GI50 (SR): 0.1 µM; GI50 (BT-549): 1.3 µM; GI50 (HS 578T): 1.3 µM; GI50 (IGROV1): 0.6 µM; GI50 (SW-620): 0.8 µM; GI50 (OVCAR-5): 1.3 µM |
| COc1cc(/C=C/C(=O)CC(=O)/C=C/c2ccc(O)c(OC)c2)ccc1O [Curcumin] | – | – | – | – | – | – | – | – | – | – | 7.9 µM | 63.1 µM | 7.9 µM | < 100 µM | 7.9 µM | 79.4 µM | 7.9 µM | 50.1 µM | – | – | – |
| O=C1C(=Cc2ccccc2O)CCCC1=Cc1ccccc1O [EF4, 2,6Bis(2-hydroxybenzylidene)cyclohexanone] | – | – | – | – | – | – | – | – | – | – | 2.1 µM | 28.6 µM | 1.7 µM | 50.8 µM | 2.9 µM | > 100 µM | 3.4 µM | 79.5 µM | 2.8 µM | 41.4 µM | – |
| CC1(/C=C/c2ccccc2O)C=Cc2ccccc2O1 (stereo not shown) [EF7] | – | – | – | – | – | – | – | – | – | – | 17.2 µM | 55.6 µM | 7.7 µM | 55.4 µM | 17 µM | 86.4 µM | 15.5 µM | 55.1 µM | 12.7 µM | 54.9 µM | – |
| O=C(C=Cc1ccc(F)cc1F)C=Cc1ccc(F)cc1F [EF9, 1,5-Bis(2,4-difluorophenyl)penta-1,4-dien-3-one] | – | – | – | – | – | – | – | – | – | – | 4.8 µM | 41 µM | 4.4 µM | 56.1 µM | 3.4 µM | 85.3 µM | 14.2 µM | 58.8 µM | 16.3 µM | 70.4 µM | – |
| C(=C\c1ccccc1)/S/C=C/c1ccccc1 [EF15] | 69.9 µM | 98.8 µM | 44.6 µM | > 100 µM | > 100 µM | > 100 µM | > 100 µM | 23.3 µM | 46.1 µM | > 100 µM | – | – | – | – | – | – | – | – | – | – | GI50 (T-47D [1]): 18.5 µM; GI50 (M14): > 100 µM; GI50 (HCT-116): > 100 µM; GI50 (MALME-3M): > 100 µM; GI50 (NCI-H460): > 100 µM; GI50 (DU-145): > 100 µM; GI50 (HCT-15): 49.1 µM; GI50 (CAKI-1): > 100 µM; GI50 (UO-31): 96.8 µM; GI50 (U251): 95.1 µM; GI50 (MOLT-4): > 100 µM; GI50 (SR): 52 µM; GI50 (BT-549): > 100 µM; GI50 (HS 578T): > 100 µM; GI50 (IGROV1): > 100 µM; GI50 (SW-620): 79.8 µM; GI50 (OVCAR-5): > 100 µM |
| OC(CCc1ccc(F)cc1F)CCc1ccc(F)cc1F [EF19, 1,5-Bis(2,4-difluorophenyl)-pentan-3-ol] | – | – | – | – | – | – | – | – | – | – | 17.5 µM | 56.7 µM | 15.5 µM | 68.9 µM | 18 µM | 67.3 µM | 18.7 µM | 69.7 µM | 17.5 µM | 59.3 µM | – |
| CC(=O)O.O=C1C(=Cc2ccccc2F)CNCC1=Cc1ccccc1F [EF24, 3,5-Bis-(2-fluorobenzylidene)-piperidin-4-one-acetate] | – | – | – | – | – | – | – | – | – | – | 0.3 µM | 7.2 µM | 1.3 µM | 51.9 µM | 0.4 µM | 31.3 µM | 85 µM | 20.6 µM | 3 µM | 23.3 µM | – |
